Source: PMC8558867, “Development of BromoTag: A “Bump-and-Hole”–PROTAC System to Induce Potent, Rapid, and Selective Degradation of Tagged Target Proteins” (Journal of Medicinal Chemistry, 2021)
Several values for one entry are separate records, joined by “and”; a condition that tells them apart may be missing. Identical values can stand only once. Like-named read-outs stand apart in the source and are kept apart here.

Legend:
[1] = system: BromoTag-Brd2; assay: Dose–response degradation assay (western blot, 6 h) in heterozygous BromoTag-Brd2 HEK293 cells; assay type: cell-based, human; settings: 6 h; for DC50: read-out: DC50 of BromoTag-Brd2 degradation (DC50, 6h), single stereoisomers
Protocol: All dose–response degradation assays were performed on the genotype-verified heterozygous BromoTag-Brd2 HEK293 cell line. Heterozygous BromoTag-Brd2 HEK293 cells were plated at a density of 5 × 10^5 cells per well of a six-well healthy plate a day before initiation of the titration experiment. PROTAC compounds were dissolved in DMSO at a concentration of 10 mM; from these stock concentrations, PROTAC compounds were diluted to appropriate concentrations using DMSO in the range of 10 μM to 1 nM. […] Control compounds such as MZ1 and cis-MZ1 were similarly dissolved in DMSO to an appropriate concentration. […] The cells were washed twice with PBS before being harvested.
The membranes were blocked for 1 h prior to incubation with the primary antibodies using 5% Milk TBST. […] Following overnight incubation with the primary antibodies at 4 °C, the membranes were incubated with secondary antibodies (anti-rabbit, Abcam AB216773, 1:5000 or anti-mouse, Abcam AB216774, 1:5000) and hFABTM rhodamine anti-tubulin antibody (Biorad, 12004165, 1:10,000) for 1 h and then imaged with a Bio-Rad imager (LI-COR Biosciences). All western blots were analyzed for band intensities using Image Lab from Bio-Rad (LI-COR, Biosciences). The data extracted from these blots were then plotted and analyzed using Prism (v. 8.2.0, GraphPad).

[2] = system: BromoTag-Brd2; assay: Time course degradation assay (western blot, 0–36 h) in heterozygous BromoTag-Brd2 HEK293 cells; assay type: cell-based, human; settings: 500 nM
Protocol: Heterozygous BromoTag-Brd2 HEK293 cells were plated at a density of 5 × 10^5 cells per well of a six-well healthy plate a day prior to initiating the time course assay. […] The time point range was between 0 and 36 h. Treatment was applied in a staggered fashion to enable all time points to be harvested at the same time.
All cells were harvested on ice with RIPA lysis and extraction buffer (Thermo Fisher Scientific, 89901) supplemented with protease inhibitor cocktail (Merck, 11697498001) and Benzonase Nuclease (Sigma, E1014) before being stored at −20 °C prior to use. Total protein quantity was determined using the BCA protein assay (#23225, Pierce, Rockford, Illinois). The protein concentration was determined using the BCA assay (Thermo Fisher Scientific, 23225). The samples were then prepared and loaded onto NuPAGE 4–12% bis–tris Midi gels (Thermo Fisher Scientific, WG1403A), followed by the transfer of proteins onto nitrocellulose membranes (EMD Millipore). The membranes were blocked for 1 h prior to incubation with the primary antibodies using 5% Milk TBST. […] All western blots were analyzed for band intensities using Image Lab from Bio-Rad (LI-COR, Biosciences). The data extracted from these blots were then plotted and analyzed using Prism (v. 8.2.0, GraphPad).

[3] = system: HEK293 cells; assay: CellTiter-Glo 2.0 cell viability assay, HEK293; assay type: cell-based, human; settings: HEK293, up to 1–10 μM
Protocol: All cell lines were treated with compounds in duplicate (triplicate for DMSO controls) at a 1× concentration in 0.1% DMSO. The compounds were serially diluted to produce a 7-point, 10-fold titration. The cells were treated with 50:100 μL of compound for a final concentration of 10 μM:10 pM in 0.1% DMSO. At the point of spectrometric analysis, cells were treated with 100 μL of Promega CellTiter-Glo 2.0 Cell Viability Assay reagent. The plates were subjected to an orbital shaker for 2 min to encourage lysis and left for a further 5 min to reach peak luminescence. Luminescence was then recorded on a BMG Labtech PHERAstar luminescence plate reader with recommended settings. Data extracted from this analysis was analyzed with GraphPad Prism (v. 8.2.0, GraphPad) and normalized to the DMSO vehicle control. The EC50 values were derived from these plots.

[4] = Plasma stability; assay type: in vitro ADME; settings: mouse plasma, 37 °C, over 1 h
Protocol: Plasma stability studies were outsourced and undertaken by Shanghai ChemPartner Co., Ltd. Buffer preparation: a solution of 0.05 M sodium phosphate and 0.07 M NaCl buffer at pH 7.4 was made by dissolving 14.505 g/L of Na2HPO4·12H2O, 1.483 g/L of NaH2PO4·2H2O, and 4.095 g/L of NaCl in deionized water, and the pH was adjusted with phosphoric acid. Plasma preparation: frozen mouse plasma was thawed by placing at 37 °C quickly. The thawed plasma was centrifuged at 3000 rpm for 8 min to remove clots, and the supernatant was pooled to be used as the plasma in the experiment. The plasma (pH 7.4–8.0) was stored on ice until used. […] Plasma and spiking solutions were prewarmed at 37 °C for 5 min, and then 10 μL of prewarmed spiking solution B was added into the wells designated for all the time points (5, 15, 30, 45, and 60 min). For 0 min, 400 μL of acetonitrile-containing internal standards (imipramine, glipizide) was added to the wells of a 0 min plate, and then 90 μL of plasma was added. For the time points (0, 5, 15, 30, 45, and 60 min), 90 μL of prewarmed plasma was added at the initial stage. At 5, 15, 30, 45, and 60 min, 400 μL of acetonitrile containing the internal standard (imipramine, glipizide) was added to the wells of the corresponding plates to stop the reaction. […] Data was analyzed with Microsoft Excel.

[5] = eight-point 10 μM to 1 nM, mean ±S.E. of two repeats

Structure (SMILES): CC[C@@H](C(=O)OCCOCCOCCOCC(=O)N[C@H](C(=O)N1C[C@H](O)C[C@H]1C(=O)NCc1ccc(-c2scnc2C)cc1)C(C)(C)C)[C@@H]1N=C(c2ccc(Cl)cc2)c2c(sc(C)c2C)-n2c(C)nnc21 [AGB1 (46), (S)-13-((2S,4R)-4-Hydroxy-2-((4-(4-methylthiazol-5-yl)benzyl)carbamoyl)pyrrolidine-1-carbonyl)-14,14-dimethyl-11-oxo-3,6,9-trioxa-12-azapentadecyl (R)-2-((S)-4-(4-chlorophenyl)-2,3,9-trimethyl-6H-thieno[3,2-f][1,2,4]triazolo[4,3-a][1,4]diazepin-6-yl)butanoate]
- pDC50 (Ab: Brd^4BD2 L387A) [1, 5]: 7.8 ± 0.2
- pDC50 (Ab: BromoTag-Brd2) [1, 5]: 7.9 ± 0.1
- DC50 [1]: 12.6 to 14.5 nM
- DC50 ([1]; listed as 46): 13 to 15 nM and ~13 nM
- time to completely degrade BromoTag-Brd2 [2]: ≤ 6 h
- cytotoxicity [3]: lack of cytotoxicity
- plasma stability: levels remaining [4]: no significant changes
